Laboratory results: ChEMBL document CHEMBL1201862, “PubChem BioAssay data set” (2004)
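How tested: cells in 96-well plates exposed to compound for 48 hours at five concentrations. GI50 marks 50% less growth.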 Activity calls are given as the source filed them. Cut-off read from the data, not from the text of the source: active = GI50 up to about 1.1 µM and inactive = higher.

Key:
Assay in all cases: NCI-60 cell line screen, 48 h
HCT-116 = test system: HCT-116
DLD-1 = test system: DLD-1
HOP-62 = test system: HOP-62
DMS-273 = test system: DMS-273
A498 = test system: A498
NCI-H522 = test system: NCI-H522
SNB-75 = test system: SNB-75
ACHN = test system: ACHN
KM-20L2 = test system: KM-20L2
HCC 2998 = test system: HCC 2998
COLO 205 = test system: COLO 205
SNB-19 = test system: SNB-19
CCRF-CEM = test system: CCRF-CEM
SK-MEL-5 = test system: SK-MEL-5
LXFL 529 = test system: LXFL 529
Malme-3M = test system: Malme-3M
SK-OV-3 = test system: SK-OV-3
786-0 = test system: 786-0
RXF 393 = test system: RXF 393
MOLT-4 = test system: MOLT-4
EKVX = test system: EKVX
OVCAR-4 = test system: OVCAR-4
LOX IMVI = test system: LOX IMVI
UO-31 = test system: UO-31
OVCAR-3 = test system: OVCAR-3
SNB-78 = test system: SNB-78
SW-620 = test system: SW-620
KM12 = test system: KM12
HOP-18 = test system: HOP-18
HT-29 = test system: HT-29
HL-60 = test system: HL-60
RPMI-8226 = test system: RPMI-8226
A549 = test system: A549
M19-MEL = test system: M19-MEL
OVCAR-8 = test system: OVCAR-8
NCI-H23 = test system: NCI-H23
SF-539 = test system: SF-539
SF-268 = test system: SF-268
DMS-114 = test system: DMS-114
SR = test system: SR
SF-295 = test system: SF-295
HOP-92 = test system: HOP-92
M14 = test system: M14
IGROV-1 = test system: IGROV-1
SK-MEL-28 = test system: SK-MEL-28
U-251 = test system: U-251
CAKI-1 = test system: CAKI-1
TK-10 = test system: TK-10
NCI-H460 = test system: NCI-H460
UACC-257 = test system: UACC-257
SN12C = test system: SN12C
UACC-62 = test system: UACC-62
HCT-15 = test system: HCT-15
OVCAR-5 = test system: OVCAR-5
SK-MEL-2 = test system: SK-MEL-2
NCI-H226 = test system: NCI-H226
K562 = test system: K562
XF498 = test system: XF498

**Q.** Which GI50 (HCT-116) does the source give for C=CCC12CC(=O)CCC1c1ccc(OC)cc1C2=O (stereo unspecified) here?
**A.** > 100 µM (inactive)

**Q.** What about the GI50 (DLD-1) of the same compound?
**A.** > 100 µM (inactive)

**Q.** What about the GI50 (HOP-62) of the same compound?
**A.** > 100 µM (inactive)

**Q.** And the GI50 (DMS-273)?
**A.** > 100 µM (inactive)

**Q.** And the GI50 (A498)?
**A.** > 100 µM (inactive)

**Q.** What about the GI50 (NCI-H522) of the same compound?
**A.** > 100 µM (inactive)

**Q.** And the GI50 (SNB-75)?
**A.** > 100 µM (inactive)

**Q.** What about the GI50 (ACHN) of the same compound?
**A.** > 100 µM (inactive)

**Q.** And the GI50 (KM-20L2)?
**A.** > 100 µM (inactive)

**Q.** What about the GI50 (HCC 2998) of the same compound?
**A.** > 100 µM (inactive)

**Q.** What about the GI50 (COLO 205) of the same compound?
**A.** > 100 µM (inactive)

**Q.** And the GI50 (SNB-19)?
**A.** > 100 µM (inactive)

**Q.** What about the GI50 (CCRF-CEM) of the same compound?
**A.** > 100 µM (inactive)

**Q.** What about the GI50 (SK-MEL-5) of the same compound?
**A.** > 100 µM (inactive)

**Q.** What about the GI50 (LXFL 529) of the same compound?
**A.** > 100 µM (inactive)

**Q.** What about the GI50 (Malme-3M) of the same compound?
**A.** > 100 µM (inactive)

**Q.** And the GI50 (SK-OV-3)?
**A.** > 100 µM (inactive)

**Q.** And the GI50 (786-0)?
**A.** > 100 µM (inactive)

**Q.** What about the GI50 (RXF 393) of the same compound?
**A.** > 100 µM (inactive)

**Q.** And the GI50 (MOLT-4)?
**A.** > 100 µM (inactive)

**Q.** What about the GI50 (EKVX) of the same compound?
**A.** > 100 µM (inactive)

**Q.** And the GI50 (OVCAR-4)?
**A.** > 100 µM (inactive)

**Q.** What about the GI50 (LOX IMVI) of the same compound?
**A.** > 100 µM (inactive)

**Q.** What about the GI50 (UO-31) of the same compound?
**A.** > 100 µM (inactive)

**Q.** What about the GI50 (OVCAR-3) of the same compound?
**A.** > 100 µM (inactive)

**Q.** And the GI50 (SNB-78)?
**A.** > 100 µM (inactive)

**Q.** What about the GI50 (SW-620) of the same compound?
**A.** > 100 µM (inactive)

**Q.** And the GI50 (KM12)?
**A.** > 100 µM (inactive)

**Q.** What about the GI50 (HOP-18) of the same compound?
**A.** > 100 µM (inactive)

**Q.** What about the GI50 (HT-29) of the same compound?
**A.** > 100 µM (inactive)

**Q.** What about the GI50 (HL-60) of the same compound?
**A.** > 100 µM (inactive)

**Q.** What about the GI50 (RPMI-8226) of the same compound?
**A.** > 100 µM (inactive)

**Q.** What about the GI50 (A549) of the same compound?
**A.** > 100 µM (inactive)

**Q.** What about the GI50 (M19-MEL) of the same compound?
**A.** > 100 µM (inactive)

**Q.** What about the GI50 (OVCAR-8) of the same compound?
**A.** > 100 µM (inactive)

**Q.** And the GI50 (NCI-H23)?
**A.** > 100 µM (inactive)

**Q.** And the GI50 (SF-539)?
**A.** > 100 µM (inactive)

**Q.** And the GI50 (SF-268)?
**A.** > 100 µM (inactive)

**Q.** And the GI50 (DMS-114)?
**A.** > 100 µM (inactive)

**Q.** What about the GI50 (SR) of the same compound?
**A.** > 100 µM (inactive)

**Q.** What about the GI50 (SF-295) of the same compound?
**A.** > 100 µM (inactive)

**Q.** What about the GI50 (HOP-92) of the same compound?
**A.** > 100 µM (inactive)

**Q.** What about the GI50 (M14) of the same compound?
**A.** > 100 µM (inactive)

**Q.** And the GI50 (IGROV-1)?
**A.** > 100 µM (inactive)

**Q.** And the GI50 (SK-MEL-28)?
**A.** > 100 µM (inactive)

**Q.** And the GI50 (U-251)?
**A.** > 100 µM (inactive)

**Q.** And the GI50 (CAKI-1)?
**A.** > 100 µM (inactive)

**Q.** What about the GI50 (TK-10) of the same compound?
**A.** > 100 µM (inactive)

**Q.** And the GI50 (NCI-H460)?
**A.** > 100 µM (inactive)

**Q.** And the GI50 (UACC-257)?
**A.** > 100 µM (inactive)

**Q.** What about the GI50 (SN12C) of the same compound?
**A.** > 100 µM (inactive)

**Q.** And the GI50 (UACC-62)?
**A.** > 100 µM (inactive)

**Q.** And the GI50 (HCT-15)?
**A.** > 100 µM

**Q.** And the GI50 (OVCAR-5)?
**A.** > 100 µM (inactive)

**Q.** And the GI50 (SK-MEL-2)?
**A.** > 100 µM (inactive)

**Q.** What about the GI50 (NCI-H226) of the same compound?
**A.** > 100 µM (inactive)

**Q.** What about the GI50 (K562) of the same compound?
**A.** > 100 µM (inactive)

**Q.** How did the GI50 (HCT-116) turn out when CC(C)C(Sc1nc(-c2ccccc2)c(-c2ccccc2)[nH]1)C(=O)N/N=C/c1ccc([N+](=O)[O-])cc1 (stereo unspecified) was run?
**A.** 14.5 µM (inactive)

**Q.** What about the GI50 (DLD-1) of the same compound?
**A.** 30.8 µM (inactive)

**Q.** What about the GI50 (HOP-62) of the same compound?
**A.** 20.8 µM (inactive)

**Q.** What about the GI50 (DMS-273) of the same compound?
**A.** 12 µM (inactive)

**Q.** And the GI50 (A498)?
**A.** 20.5 µM (inactive)

**Q.** And the GI50 (NCI-H522)?
**A.** 15.3 µM (inactive)

**Q.** And the GI50 (SNB-75)?
**A.** 18.8 µM (inactive)

**Q.** And the GI50 (ACHN)?
**A.** 15.6 µM (inactive)

**Q.** What about the GI50 (KM-20L2) of the same compound?
**A.** 15.1 µM (inactive)

**Q.** And the GI50 (COLO 205)?
**A.** 11.3 µM (inactive)

**Q.** What about the GI50 (SNB-19) of the same compound?
**A.** 17.3 µM (inactive)

**Q.** What about the GI50 (CCRF-CEM) of the same compound?
**A.** 4.05 µM (inactive)

**Q.** And the GI50 (SK-MEL-5)?
**A.** 9.23 µM (inactive)

**Q.** And the GI50 (LXFL 529)?
**A.** 9.98 µM (inactive)

**Q.** What about the GI50 (XF498) of the same compound?
**A.** 16.2 µM (inactive)

**Q.** What about the GI50 (Malme-3M) of the same compound?
**A.** 13.9 µM (inactive)

**Q.** What about the GI50 (SK-OV-3) of the same compound?
**A.** 22.8 µM (inactive)

**Q.** And the GI50 (786-0)?
**A.** 14.3 µM (inactive)

**Q.** And the GI50 (MOLT-4)?
**A.** 1.93 µM (inactive)

**Q.** And the GI50 (EKVX)?
**A.** 20.4 µM (inactive)

**Q.** What about the GI50 (OVCAR-4) of the same compound?
**A.** 16 µM (inactive)

**Q.** And the GI50 (LOX IMVI)?
**A.** 11.6 µM (inactive)

**Q.** What about the GI50 (UO-31) of the same compound?
**A.** 11.3 µM (inactive)

**Q.** What about the GI50 (OVCAR-3) of the same compound?
**A.** 7.19 µM (inactive)

**Q.** What about the GI50 (SNB-78) of the same compound?
**A.** 24.8 µM (inactive)

**Q.** What about the GI50 (SW-620) of the same compound?
**A.** 14.3 µM (inactive)

**Q.** What about the GI50 (KM12) of the same compound?
**A.** 10.9 µM (inactive)

**Q.** And the GI50 (HT-29)?
**A.** 6.44 µM (inactive)

**Q.** What about the GI50 (HL-60) of the same compound?
**A.** 13.6 µM (inactive)

**Q.** What about the GI50 (RPMI-8226) of the same compound?
**A.** 11.5 µM (inactive)

**Q.** And the GI50 (A549)?
**A.** 27.3 µM (inactive)

**Q.** And the GI50 (M19-MEL)?
**A.** 11.6 µM (inactive)

**Q.** And the GI50 (OVCAR-8)?
**A.** 29.1 µM (inactive)

**Q.** What about the GI50 (NCI-H23) of the same compound?
**A.** 16.7 µM (inactive)

**Q.** And the GI50 (SF-539)?
**A.** 20.5 µM (inactive)

**Q.** What about the GI50 (SF-268) of the same compound?
**A.** 18.5 µM (inactive)

**Q.** And the GI50 (DMS-114)?
**A.** 25.9 µM (inactive)

**Q.** What about the GI50 (SR) of the same compound?
**A.** 1.12 µM (inactive)

**Q.** What about the GI50 (SF-295) of the same compound?
**A.** 15.8 µM (inactive)

**Q.** And the GI50 (HOP-92)?
**A.** 10.4 µM (inactive)

**Q.** And the GI50 (M14)?
**A.** 7.33 µM (inactive)

**Q.** What about the GI50 (IGROV-1) of the same compound?
**A.** 18.2 µM (inactive)

**Q.** And the GI50 (SK-MEL-28)?
**A.** 15.5 µM (inactive)

**Q.** And the GI50 (U-251)?
**A.** 14.6 µM (inactive)

**Q.** What about the GI50 (CAKI-1) of the same compound?
**A.** 21.1 µM (inactive)

**Q.** What about the GI50 (TK-10) of the same compound?
**A.** 30.1 µM (inactive)

**Q.** What about the GI50 (NCI-H460) of the same compound?
**A.** 9.46 µM (inactive)

**Q.** What about the GI50 (UACC-257) of the same compound?
**A.** 12.1 µM (inactive)

**Q.** What about the GI50 (SN12C) of the same compound?
**A.** 12.5 µM (inactive)

**Q.** What about the GI50 (UACC-62) of the same compound?
**A.** 15.6 µM (inactive)

**Q.** What about the GI50 (HCT-15) of the same compound?
**A.** 12.5 µM

**Q.** And the GI50 (OVCAR-5)?
**A.** 20.1 µM (inactive)

**Q.** What about the GI50 (SK-MEL-2) of the same compound?
**A.** 12.5 µM (inactive)

**Q.** What about the GI50 (NCI-H226) of the same compound?
**A.** 17.9 µM (inactive)
